Measurements from patent publication US20080138317A1, “Use of biocompatible amphiphilic polymers as an anti-inflammatory agent” (priority 2004, published 2008).

System: TNF-α release from monocytes
Type: cell-based
Conditions: supernatant of human monocytes after overnight incubation; okadaic acid (OA) 50 nM; troglitazone 30 μm; MGSA polymers 50%; ELISA
Protocol: Human monocytes were isolated from freshly collected buffy coat preparations of whole human blood. Briefly, whole blood was diluted 1:1.33 with sterile phosphate buffered solution (PBS) and layered over Histopaque, which was then centrifuged for 30 minutes at 1500 rpm at room temperature. The interface was harvested and washed with PBS, followed by another centrifugation at 1500 rpm for 10 minutes. A final wash was performed in RPMI 1640 with 10% fetal bovine serum (FBS). Cells were counted using a hemacytometer and seeded at 2.4×10^6 cells/300 μl into a 48-well tissue culture treated plate. Cells were incubated for 1 hour at 37° C., 5% CO2 and non-adherent cells were removed with a PBS wash. 300 μl of RPMI 1640 with 10% FBS was added back to the cells along with the various test conditions; cells in media alone, with DMSO (the vehicle used to reconstitue okadaic acid and troglitazone), with okadaic acid (OA, 50 nM), with OA and troglitazone (30 μm), with OA and monostearyl glyceride succinic anhydride (MGSA)-liquid (3305-15, 50%), and with OA and MGSA-solid (2804-60, 50%). The supernatants were collected after overnight incubation at 37° C., 5% CO2 and later analyzed for TNF-α by ELISA.

SMILES	TNF-α
C=C1[C@@H](O)[C@@H]2O[C@]3(CC[C@H](/C=C/[C@@H](C)[C@@H]4CC(C)=C[C@@]5(O[C@H](C[C@@](C)(O)C(=O)O)CC[C@H]5O)O4)O3)CC[C@H]2O[C@@H]1[C@@H](O)C[C@H](C)[C@H]1O[C@@]2(CCCCO2)CC[C@H]1C [Okadaic Acid, okadaic acid]	575.765 ng/mL
Cc1c(C)c2c(c(C)c1O)CCC(C)(COc1ccc(CC3SC(=O)NC3=O)cc1)O2 (centres unmarked) [Troglitazone]	422.554 ng/mL
